Measurements published in PubChem BioAssay (NCI).
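Where inhibition never reached the appropriate level, the endpoint shown equals the highest concentration tested. Otherwise, values were interpolated linearly from a five-concentration, 48-hour dose response in 96-well plates. GI50 = concentration required for 50% inhibition of growth. TGI marks complete inhibition of growth.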

Key:
Experiment in all cases: DTP human tumour cell line panel, 48 h
SNB-75 CNS = tested on: SNB-75 CNS
DU-145 prostate = tested on: DU-145 prostate
K-562 leukemia = tested on: K-562 leukemia
OVCAR-5 ovarian = tested on: OVCAR-5 ovarian
OVCAR-4 ovarian = tested on: OVCAR-4 ovarian
MDA-MB-435 = tested on: MDA-MB-435
HCC-2998 colon = tested on: HCC-2998 colon
NCI-H460 lung = tested on: NCI-H460 lung
A549 NSCLC = tested on: A549 NSCLC
EKVX NSCLC = tested on: EKVX NSCLC

## Nc1cc2c3ccccc3ccc2c2ccccc12
SNB-75 CNS
  GI50: > 30.5 µM
  TGI: > 100 µM
DU-145 prostate
  GI50: > 87.4 µM
  TGI: > 100 µM
K-562 leukemia
  GI50: 19.3 µM
  TGI: > 100 µM
OVCAR-5 ovarian
  GI50: > 100 µM
  TGI: > 100 µM
OVCAR-4 ovarian
  GI50: > 22.5 µM
  TGI: > 100 µM
MDA-MB-435
  GI50: > 56.1 µM
  TGI: > 100 µM
HCC-2998 colon
  GI50: > 100 µM
  TGI: > 100 µM
NCI-H460 lung
  GI50: 7.63 µM
  TGI: > 100 µM
A549 NSCLC
  GI50: 23.9 µM
  TGI: > 100 µM

## O=C(Nc1ccc(-c2cn3ccccc3n2)cc1)c1cc(Br)ccc1O
SNB-75 CNS
  TGI: > 100 µM
DU-145 prostate
  TGI: > 100 µM
K-562 leukemia
  TGI: > 100 µM
OVCAR-5 ovarian
  TGI: > 100 µM
OVCAR-4 ovarian
  TGI: > 100 µM
EKVX NSCLC
  TGI: > 100 µM
MDA-MB-435
  TGI: > 100 µM
NCI-H460 lung
  TGI: > 100 µM
A549 NSCLC
  TGI: > 100 µM

## O=C(COc1ccc(Cl)cc1Cl)NNc1ccc([N+](=O)[O-])cc1
SNB-75 CNS
  GI50: 15.3 µM
  TGI: 33.7 µM
DU-145 prostate
  GI50: 53.3 µM
  TGI: > 100 µM
K-562 leukemia
  GI50: 39 µM
  TGI: > 100 µM
OVCAR-5 ovarian
  GI50: > 100 µM
  TGI: > 100 µM
OVCAR-4 ovarian
  GI50: > 100 µM
  TGI: > 100 µM
MDA-MB-435
  GI50: > 100 µM
  TGI: > 100 µM
HCC-2998 colon
  GI50: > 100 µM
  TGI: > 100 µM
NCI-H460 lung
  GI50: > 100 µM
  TGI: > 100 µM
A549 NSCLC
  GI50: > 100 µM
  TGI: > 100 µM

## OCC1OC(NO)C(O)C(O)C1O (centres undefined)
K-562 leukemia
  TGI: > 100 µM
OVCAR-5 ovarian
  TGI: > 100 µM
OVCAR-4 ovarian
  TGI: > 100 µM
HCC-2998 colon
  TGI: > 100 µM
NCI-H460 lung
  TGI: > 100 µM
A549 NSCLC
  TGI: > 100 µM

## COc1ccc(C2[C@@H](Cl)C(=O)N2c2ccc(OC)cc2)cc1 (some centres undefined)
SNB-75 CNS
  TGI: 64.1 µM
K-562 leukemia
  TGI: > 100 µM
OVCAR-5 ovarian
  TGI: > 100 µM
EKVX NSCLC
  TGI: > 100 µM
HCC-2998 colon
  TGI: > 100 µM
NCI-H460 lung
  TGI: > 100 µM
A549 NSCLC
  TGI: > 100 µM

## CCCCCCCN(CCCCCCC)C(=N)c1ccc(OC)c2ccccc12
SNB-75 CNS
  GI50: 1.3 µM
  TGI: 2.6 µM
DU-145 prostate
  GI50: 1.38 µM
  TGI: 2.76 µM
OVCAR-5 ovarian
  GI50: 1.29 µM
  TGI: 2.88 µM
OVCAR-4 ovarian
  GI50: 1.36 µM
  TGI: 3.02 µM
EKVX NSCLC
  GI50: 1.37 µM
  TGI: 2.85 µM
MDA-MB-435
  GI50: 1.48 µM
  TGI: 2.89 µM
A549 NSCLC
  GI50: 1.37 µM
  TGI: 2.82 µM

## O=S1(=O)CC#CC[C@@H](CO)[C@@H](CO)CC#CC1
SNB-75 CNS
  TGI: > 100 µM
K-562 leukemia
  TGI: > 100 µM
OVCAR-5 ovarian
  TGI: > 100 µM
OVCAR-4 ovarian
  TGI: > 100 µM
EKVX NSCLC
  TGI: > 100 µM
HCC-2998 colon
  TGI: > 100 µM
NCI-H460 lung
  TGI: > 100 µM
A549 NSCLC
  TGI: > 100 µM

## CN(N=O)N1C(=O)SCC(c2ccccc2)(c2ccccc2)C1=O
SNB-75 CNS
  TGI: 82.2 µM
DU-145 prostate
  TGI: > 100 µM
K-562 leukemia
  TGI: > 100 µM
OVCAR-5 ovarian
  TGI: > 100 µM
EKVX NSCLC
  TGI: > 100 µM
MDA-MB-435
  TGI: 73.3 µM
HCC-2998 colon
  TGI: > 100 µM
NCI-H460 lung
  TGI: > 100 µM
A549 NSCLC
  TGI: > 100 µM

## CC1=NN(c2ccccc2)C(=O)C1N=Nc1ccc(Br)cc1C (centres undefined)
SNB-75 CNS
  TGI: 48.3 µM
K-562 leukemia
  TGI: > 100 µM
OVCAR-5 ovarian
  TGI: > 100 µM
OVCAR-4 ovarian
  TGI: > 100 µM
EKVX NSCLC
  TGI: > 100 µM
HCC-2998 colon
  TGI: > 100 µM
NCI-H460 lung
  TGI: > 100 µM
A549 NSCLC
  TGI: > 100 µM

## C=C1[C@H](O)C[C@@H](C(C)C(O)CC=C(C)C)[C@@H](O)[C@@H]2C(C)=CC[C@@H]12 (some centres undefined)
SNB-75 CNS
  GI50: > 100 µM
  TGI: > 100 µM
DU-145 prostate
  GI50: > 100 µM
  TGI: > 100 µM
K-562 leukemia
  GI50: 53 µM
  TGI: > 100 µM
OVCAR-5 ovarian
  GI50: > 100 µM
  TGI: > 100 µM
OVCAR-4 ovarian
  GI50: > 100 µM
  TGI: > 100 µM
EKVX NSCLC
  GI50: > 100 µM
  TGI: > 100 µM
MDA-MB-435
  GI50: > 100 µM
  TGI: > 100 µM
NCI-H460 lung
  GI50: > 100 µM
  TGI: > 100 µM
A549 NSCLC
  GI50: > 100 µM
  TGI: > 100 µM

## CC(C)(C)c1cc([Si](C)(C)C)c(C#N)c([Si](C)(C)C)c1
SNB-75 CNS
  TGI: > 100 µM
K-562 leukemia
  TGI: > 100 µM
OVCAR-5 ovarian
  TGI: > 100 µM
OVCAR-4 ovarian
  TGI: > 100 µM
EKVX NSCLC
  TGI: > 100 µM
HCC-2998 colon
  TGI: > 100 µM
NCI-H460 lung
  TGI: > 100 µM
A549 NSCLC
  TGI: > 100 µM

## O=c1[nH]c(C2CCCCC2)nc2ccc(Cl)cc12
SNB-75 CNS
  TGI: > 100 µM
K-562 leukemia
  TGI: > 100 µM
OVCAR-5 ovarian
  TGI: > 100 µM
EKVX NSCLC
  TGI: > 100 µM
HCC-2998 colon
  TGI: > 100 µM
A549 NSCLC
  TGI: > 100 µM

## CCn1c(C)nc([N+](=O)[O-])c1Sc1ncc[nH]1
SNB-75 CNS
  TGI: > 100 µM
K-562 leukemia
  TGI: > 100 µM
OVCAR-5 ovarian
  TGI: > 100 µM
OVCAR-4 ovarian
  TGI: > 100 µM
EKVX NSCLC
  TGI: > 100 µM
HCC-2998 colon
  TGI: > 100 µM
NCI-H460 lung
  TGI: > 100 µM
A549 NSCLC
  TGI: > 100 µM

## O=C(Nc1cccc(Cl)c1)Nc1cc(C(F)(F)F)ccc1Cl
SNB-75 CNS
  GI50: 2.29 µM
  TGI: 6.48 µM
DU-145 prostate
  GI50: 2.95 µM
  TGI: 10.2 µM
K-562 leukemia
  GI50: 3.36 µM
  TGI: 18.2 µM
OVCAR-5 ovarian
  GI50: 3.17 µM
  TGI: 12.7 µM
OVCAR-4 ovarian
  GI50: 3.8 µM
  TGI: 16.6 µM
HCC-2998 colon
  GI50: 2.53 µM
  TGI: 5.88 µM
NCI-H460 lung
  GI50: 2.54 µM
  TGI: 6.84 µM
A549 NSCLC
  GI50: 2.72 µM
  TGI: 8.98 µM

## Cc1ccccc1C1SCc2nc3ccccc3n21 (centres undefined)
SNB-75 CNS
  TGI: > 100 µM
K-562 leukemia
  TGI: > 100 µM
OVCAR-5 ovarian
  TGI: > 100 µM
EKVX NSCLC
  TGI: > 100 µM
HCC-2998 colon
  TGI: > 100 µM
A549 NSCLC
  TGI: > 100 µM

## CC1O[C@@H]2CCCCC(=O)[C@]2(C)[C@H]1C (some centres undefined)
SNB-75 CNS
  TGI: > 100 µM
K-562 leukemia
  TGI: > 100 µM
OVCAR-5 ovarian
  TGI: > 100 µM
OVCAR-4 ovarian
  TGI: > 100 µM
EKVX NSCLC
  TGI: > 100 µM
HCC-2998 colon
  TGI: > 100 µM
NCI-H460 lung
  TGI: > 100 µM
A549 NSCLC
  TGI: > 100 µM

## O=C(NNC(=O)/C(=C/c1cccc([N+](=O)[O-])c1)NC(=O)c1ccccc1)Nc1ccc(Cl)cc1
SNB-75 CNS
  TGI: 36 µM
K-562 leukemia
  TGI: 36.1 µM
OVCAR-5 ovarian
  TGI: 32.4 µM
OVCAR-4 ovarian
  TGI: 26.9 µM
EKVX NSCLC
  TGI: 44 µM
HCC-2998 colon
  TGI: 25.8 µM
NCI-H460 lung
  TGI: 29.9 µM
A549 NSCLC
  TGI: 31.4 µM

## O/N=C1/C(=C/c2ccc(Br)cc2)CCCC1C(NO)c1ccc(Br)cc1 (centres undefined)
SNB-75 CNS
  TGI: 36.4 µM
K-562 leukemia
  TGI: > 100 µM
OVCAR-5 ovarian
  TGI: 24.6 µM
OVCAR-4 ovarian
  TGI: 23.3 µM
A549 NSCLC
  TGI: 32.1 µM

## [N-]=[N+]=NCCCn1c2c(c3ccccc3c1=O)C(=O)c1cc3c(cc1-2)OCO3
DU-145 prostate
  GI50: 76 µM
  TGI: > 100 µM
K-562 leukemia
  GI50: 25.9 µM
  TGI: > 100 µM
OVCAR-5 ovarian
  GI50: > 100 µM
  TGI: > 100 µM
EKVX NSCLC
  GI50: > 100 µM
  TGI: > 100 µM
MDA-MB-435
  GI50: > 100 µM
  TGI: > 100 µM
NCI-H460 lung
  GI50: 8.25 µM
  TGI: > 100 µM
A549 NSCLC
  GI50: > 100 µM
  TGI: > 100 µM

## Cc1c2cc[n+](C)cc2c(C)c2c1[nH]c1ccc(OC(C)(C)C)cc12
SNB-75 CNS
  TGI: > 100 µM
K-562 leukemia
  TGI: > 100 µM
OVCAR-5 ovarian
  TGI: > 100 µM
OVCAR-4 ovarian
  TGI: > 100 µM
HCC-2998 colon
  TGI: > 100 µM
NCI-H460 lung
  TGI: > 100 µM
A549 NSCLC
  TGI: > 100 µM

## Clc1cc2ns[s+]c2cc1Cl
SNB-75 CNS
  TGI: > 64.2 µM
K-562 leukemia
  TGI: > 100 µM
OVCAR-5 ovarian
  TGI: > 100 µM
OVCAR-4 ovarian
  TGI: > 100 µM
EKVX NSCLC
  TGI: > 100 µM
HCC-2998 colon
  TGI: > 100 µM
NCI-H460 lung
  TGI: > 100 µM
A549 NSCLC
  TGI: > 100 µM

## Cc1cc(NCCCCCCCCNc2cc(C)nc3cc(N(C)C)ccc23)c2ccc(N(C)C)cc2n1
K-562 leukemia
  TGI: 28.5 µM
OVCAR-4 ovarian
  TGI: 21.6 µM
EKVX NSCLC
  TGI: 28.5 µM
NCI-H460 lung
  TGI: 19.5 µM
A549 NSCLC
  TGI: 21.8 µM
